{
  "source": "patent US4112073A",
  "about": "“Medicinal composition comprising adrenal cortical hormone and thyroid stimulating hormone releasing hormone” (Takeda Chemical Industries, Ltd., priority 1975, dated 1978)",
  "key": {"[1]": {"test": "Relative clinical effect of ACH (dexamethasone equivalent)", "conditions": "for Equivalent (dexamethasone equivalent): dexamethasone taken as unity", "excerpt": "The relative amounts of ACH and TSH-releasing hormones may be determined according to the particular dosage form, the disease to be treated and other factors. Generally speaking, the ratio is about 1 (dexamethasone equivalent): 0.05 to 5, advantageously 0.05 to 2, and especially 0.1 to 1. The preferred ratio in each dosage form is; in the case of injections, about 1 (dexamethasone equivalent): 0.05 to 1, advantageously 0.1 to 1; in the case of oral preparations, about 1 (dexamethasone equivalent): 1 to 5, advantageously 1 to 2; and in the case of topical preparations, infusions and implants, about 1 (dexamethasone equivalent): 0.5 to 5, advantageously 0.5 to 2. The `dexamethasone equivalent` is an index number representing the relative clinical effect of any ACH with the effect of dexamethasone being taken as unity."}, "[2]": {"conditions": "relative clinical effect of ACH; cited from earlier work"}, "[3]": {"tested_on": "chronic moist dermatitis (in dogs)", "conditions": "oral tablets; Akitaken, 25 kg", "experimental": "Diagnosis: Chronic moist dermatitis\nTherefore, on the next day one tablet containing 0.5 mg of dexamethasone and 1 mg of TRH tartrate was orally administered. […] As an adjunct to the medication, the dog was placed on a controlled regimen."}, "eczema (in dogs)": {"tested_on": "eczema (in dogs)", "test": "Treatment of eczema in dogs with ointment (Example 2)", "conditions": "hydrophilic ointment 0.1%, externally applied"}},
  "note": "“Also recorded” adds a separate entry of the source.",
  "data": [
    {"smiles": "C[C@H]1C[C@H]2[C@@H]3CCC4=CC(=O)C=C[C@]4(C)[C@@]3(F)[C@@H](O)C[C@]2(C)[C@@]1(O)C(=O)CO", "note": "[Betamethasone, 9α-fluoro-16α-methylprednisolone]", "values": [
      {"measurement": "clinical efficacy / potency compared with dexamethasone", "setting": "[1]", "result": "as potent as dexamethasone"},
      {"measurement": "Equivalent (dexamethasone equivalent)", "setting": "[1]", "result": 1},
      {"measurement": "Clinical effect", "setting": "[2]", "result": 30}
    ]},
    {"smiles": "C[C@@H]1C[C@H]2[C@@H]3CCC4=CC(=O)C=C[C@]4(C)[C@@]3(F)[C@@H](O)C[C@]2(C)[C@@]1(O)C(=O)CO", "note": "[Dexamethasone, 9α-fluoro-16α-methylprednisolone]", "values": [
      {"measurement": "Equivalent (dexamethasone equivalent)", "setting": "[1]", "result": 1},
      {"measurement": "therapeutic response", "setting": "[3]", "result": "failed to elicit a response"},
      {"measurement": "Clinical effect", "setting": "[2]", "result": 30.0}
    ]},
    {"smiles": "C[C@]12CCC(=O)C=C1CC[C@@H]1[C@@H]2[C@@H](O)C[C@@]2(C)[C@H]1CC[C@]2(O)C(=O)CO", "note": "[Hydrocortisone]", "values": [
      {"measurement": "Equivalent (dexamethasone equivalent)", "setting": "[1]", "result": 30},
      {"measurement": "Clinical effect", "setting": "[2]", "result": 1.0}
    ]},
    {"smiles": "C[C@H]1C[C@@H]2[C@H]([C@@H](O)C[C@@]3(C)[C@H]2CC[C@]3(O)C(=O)CO)[C@@]2(C)C=CC(=O)C=C12", "note": "[Methylprednisolone, 6α-methylprednisolone]", "values": [
      {"measurement": "Equivalent (dexamethasone equivalent)", "setting": "[1]", "result": 6},
      {"measurement": "Clinical effect", "setting": "[2]", "result": 5.0}
    ]},
    {"smiles": "C[C@@H]1C[C@H]2[C@@H]3C[C@H](F)C4=CC(=O)C=C[C@]4(C)[C@H]3[C@@H](O)C[C@]2(C)[C@@]1(O)C(=O)CO", "note": "[Paramethasone, 6α-fluoro-16α-methylprednisolone]", "values": [
      {"measurement": "Equivalent (dexamethasone equivalent)", "setting": "[1]", "result": 3},
      {"measurement": "Clinical effect", "setting": "[2]", "result": 10.0}
    ]},
    {"smiles": "C[C@]12C=CC(=O)C=C1CC[C@@H]1[C@@H]2[C@@H](O)C[C@@]2(C)[C@H]1CC[C@]2(O)C(=O)CO", "note": "[Prednisolone, prednisolone]", "values": [
      {"measurement": "Equivalent (dexamethasone equivalent)", "setting": "[1]", "result": 7.5},
      {"measurement": "Clinical effect", "setting": "[2]", "result": 4.0}
    ]},
    {"smiles": "C[C@]12C=CC(=O)C=C1CC[C@H]1[C@@H]3C[C@@H](O)[C@](O)(C(=O)CO)[C@@]3(C)C[C@H](O)[C@@]12F", "note": "[Triamcinolone, 9α-fluoro-16α-hydroxyprednisolone]", "values": [
      {"measurement": "clinical efficacy / potency compared with dexamethasone", "setting": "[1]", "result": "one-sixth"},
      {"measurement": "Equivalent (dexamethasone equivalent)", "setting": "[1]", "result": 6},
      {"measurement": "Clinical effect", "setting": "[2]", "result": 5.0}
    ]},
    {"smiles": "C[C@@H]1C[C@H]2[C@@H]3CCC4=CC(=O)C=C[C@]4(C)[C@@]3(F)[C@@H](O)C[C@]2(C)[C@@]1(O)C(=O)COP(=O)(O)O", "note": "[dexamethasone phosphate]", "values": [
      {"measurement": "therapeutic result", "setting": "eczema (in dogs); 4 dogs with exudative eczema", "result": "a passing mitigation of inflammation or itchiness; also recorded: substantially no successful therapeutic result was obtained"},
      {"measurement": "adverse response", "setting": "eczema (in dogs); dogs with exudative eczema", "result": "an increase in the amount of exudate"}
    ]}
  ]
}
